Literature values, collected in the CATMoS acute toxicity set (Mansouri et al. 2021).
“And” between values parts separate entries of the source, which are not always exact repeats. Equal values may be shown once.

experiment: rat acute oral toxicity; conditions: in vivo
Excerpt: […]The data set underlying the modeling effort for this project was initially compiled by NICEATM and U.S. EPA’s CCTE. Briefly, LD50 data were collected from rat acute oral systemic toxicity tests, including limit tests, ranges/confidence intervals, and discrete LD50 values. The full data set included 21,200 LD50 entries for 15,688 substances. […] Data were reviewed to ensure that LD50 values with obvious errors in the extracted data such as unit conversion errors (e.g., comma and decimal separator misplacements) were either fixed or removed. After this review, 16,209 LD50 values remained. Many of the chemicals represented had multiple LD50 entries, requiring that a single representative value per Chemical Abstracts Service Registry Number (CASRN) identifier be defined to facilitate modeling efforts. Based on ATWG feedback and to define the representative LD50 as a protective value while accounting for the distribution across multiple LD50s, the median of the lowest quartile was computed using only discrete LD50 values (omitting limit test data and range and confidence interval data). A detailed summary of the data compilation is available online on the NICEATM webpage dedicated to the collaborative modeling project (NTP 2020).
[…][…] For categorical designations, limit test and range/confidence interval LD50 data were integrated wherever possible. As such, the number of chemicals with end point values/calls varies across the modeling end points (Table 3) based on whether chemicals had representative LD50 values and/or other data. If a chemical had both, the representative value was used to determine categorical calls rather than limit test data. Some data were useable only for certain end points and categories depending on the thresholds. For example, ranges that spanned multiple hazard categories were considered only for the binary (very toxic/nontoxic) end points and omitted from rendering a determination for hazard category assignment.
[…]The final data set comprising 11,992 chemicals was split into training and evaluation sets […], respectively. This process was performed semirandomly by ordering chemicals based on the five end points (categorical and continuous LD50 values) and partitioning every fourth record into the evaluation set accordingly. This approach was taken to ensure an equivalent distribution of the LD50 values and the different hazard categories between the training and the evaluation sets without supervised sampling of the chemicals based on structures (Figure 1A). The sources of the chemical structures were also kept equivalent between the two sets, with chemical structures obtained from DSSTox, being the highest quality, representing over 75% of each set (Figure 1B).

SMILES | LD50
CN(CCO)c1ccccc1 | 2830 mg/kg
CCCCC(CC)CN (stereo not given) | 450 mg/kg
NCC(=O)O | 7930 mg/kg and 3340 mg/kg
O=C1C=CCCC1 | 220 mg/kg
CCN(CC)S(=O)(=O)c1c(Cl)c(Cl)c(Cl)c2[nH]c(C(F)(F)F)nc12 | 11.2 mg/kg
CCCN(C)C | 500 mg/kg
CCN(CC)c1ccc(C=O)c(O)c1 | 2260 mg/kg
CN1C(=CC=CC2=[N+](C)c3ccccc3C2(C)C)C(C)(C)c2ccccc21 | 18 mg/kg
O=C(CCNNC(=O)c1ccncc1)NCc1ccccc1 | 1700 mg/kg
CC(C)CCCCCc1ccc(O)cc1 | 2150 mg/kg
C#CC(C)(C)NC(=O)C=Cc1cc(OC)c(OC)c(OC)c1 | 570 mg/kg
C=CCOc1ccc([C@H]2c3ccc(OC)cc3OC(C)(C)[C@@H]2c2ccccc2)cc1 | 500 mg/kg
CC(=O)O[C@H]1C[C@@H]2CC[C@@H]3[C@H](CC[C@@]4(C)[C@H]3C[C@H]([N+]3(C)CCCCC3)[C@@H]4OC(C)=O)[C@@]2(C)C[C@@H]1[N+]1(C)CCCCC1 | 202 mg/kg
O=C1C(Cl)=C(NC(=O)C(Cl)Cl)C(=O)c2ccccc21 | 11700 mg/kg
C[C@H](NCCc1ccc(O)cc1)[C@H](O)c1ccc(O)cc1 | 1840 mg/kg
COC1=CC=C2[C@H]3Cc4ccc(OC)c5c4[C@@]2(CCN3C)[C@H]1O5 | 114 mg/kg
CCCCCCCCC[N+]1(C)[C@H]2CC(OC(=O)C(CO)c3ccccc3)C[C@H]1[C@H]1O[C@H]12 (stereo not given in full) | 1300 mg/kg
CC(C)(C)NCCC(O)c1cc(C(F)(F)F)nc2c(C(F)(F)F)cccc12 (stereo not given) | 2090 mg/kg
CSCCC(O)C#N (stereo not given) | 48 mg/kg
CCS(=O)CCSP(=S)(OC)OC (stereo not given) | 100 mg/kg
O=S(=O)(Oc1ccc(Cl)cc1Cl)c1ccccc1 | 1000 mg/kg
CCOC(C1=NCCCN1)c1cccc(F)c1 (stereo not given) | 1000 mg/kg
CCCCOP(=O)(OCCCC)Oc1ccc2c(C)c(Cl)c(=O)oc2c1 | 63 mg/kg
CC1COC(C(Cl)(Cl)Cl)O1 (stereo not given) | 380 mg/kg
CNC(=O)ON=C1[C@@H](Cl)[C@@H]2C[C@H](C#N)[C@H]1C2 (relative stereo) | 25 mg/kg

SMILES | LD50
CCCCC1C(=O)N(c2ccccc2)N(c2ccc(O)cc2)C1=O (stereo not given) | 329 mg/kg
CC1=C(C(=O)OCCN(C)Cc2ccc(F)cc2)C(c2cccc3c2OCO3)C(C(=O)OC(C)C)=C(C)N1 (stereo not given) | 64 mg/kg
CCOP(=S)(SC(C)CC)N(C=O)CC (stereo not given) | 95.9 mg/kg
C=CCCC(=O)O | 470 mg/kg
C=CC(=O)OC(C)COCC(C)OC(=O)C=C (stereo not given) | 4600 mg/kg
CCCC(C)C(c1ccc(O)cc1)C(C)C (stereo not given) | 1900 mg/kg
CCOP(=S)(OCC)SCC | 80 mg/kg
O=C1NCC2(CCN(CCc3ccccc3)CC2)O1 | 980 mg/kg and 437 mg/kg
CCCC/C=C\CCCCCCOC(C)=O | 13400 mg/kg
C=C1C[C@@H]1C[C@H](N)C(=O)O | 98 mg/kg
COc1c(Cl)c(Cl)c2[nH]c(C(F)(F)F)nc2c1Cl | 33 mg/kg
CC(CN1CCN(CCOCCO)CC1)CN1c2ccccc2Sc2ccc(Cl)cc21 (stereo not given) | 400 mg/kg
CC(C)c1cc(Oc2c(I)cc(CC(=O)O)cc2I)ccc1O | 5.4 mg/kg
FC(F)(F)C(Cl)Br (stereo not given) | 5680 mg/kg
Cc1cc(C)nc(Nc2ccccc2)n1 | 4150 mg/kg
CCC[C@]1(c2cccc(O)c2)CCN(C)C[C@@H]1C | 887 mg/kg
CCCCc1c(OC(=O)c2cc(OC)c(OC)c(OC)c2)n(-c2ccccc2)n(-c2ccccc2)c1=O | 3000 mg/kg
O=C(O)[C@H]1/C(=C/CO)O[C@@H]2CC(=O)N21 | 7940 mg/kg
OCC1OC(N2CCN(C3OC(CO)C(O)C(O)C3O)CC2)C(O)C(O)C1O (stereo not given) | 30000 mg/kg
ClC=Cc1ccccc1 | 5200 mg/kg
Cl[Si](Cl)(Cl)C1CC=CCC1 (stereo not given) | 2830 mg/kg
CCOP(=O)(OCC)OC(=C(Br)Br)c1ccc(Cl)cc1Cl | 78.1 mg/kg
CN(C)CCCn1c2ccccc2c(=O)c2c([N+](=O)[O-])cccc21 | 53.3 mg/kg
CS(=O)(=O)OCCCNCCCOS(C)(=O)=O | 108 mg/kg
Nc1ccc(C=Cc2ccc([N+](=O)[O-])cc2S(=O)(=O)O)c(S(=O)(=O)O)c1 | 14200 mg/kg
